Structures can show the parent of a compound that is named as a salt. Where two headings read alike, the source gives them in different places.
Tests used:
[1] = system: rats; experiment: CFA model of inflammatory pain in rats (Randall-Selitto), potentiation of a low dose of morphine; assay type: in vivo
[2] = target: human recombinant MAO-B (Homo sapiens (Human), UniProt P27338); experiment: Monoaminooxidase (MAO) activity assay, MAO-Glo luminescent method, MAO-B
Protocol: Monoaminooxidase (MAO) Activity Assay.
Inhibitory activity of compounds was evaluated by a homogeneous luminescent method, the MAO-Glo™ Assay (Promega), measuring the monoamine oxidase activity (MAOs) from recombinant source (microsomes from baculovirus infected insect cells, Sigma). Experiments were performed according to the Supplier's procedure, incubating human recombinant MAO-A or MAO-B with a luminogenic substrate, a derivative of beetle luciferin ((4S)-4,5-dihydro-2-(6-hydroxybenzothiazolyl)-4-thiazolecarboxylic acid). […] The MAO-Glo™ Assay was performed in two steps:
Step 1. The MAO reaction: MAO substrate was incubated with MAO-A or MAO-B (1 μg/sample) in the absence (Total activity) or presence (modulated activity) of test compounds. Total activity was determined in the presence the appropriate solvent. […] Reaction started adding the enzyme solution and samples were incubated for 60 min at room temperature. For negative control reaction, samples of MAO reaction buffer (100 mM Hepes, 5% glycerol, pH 7.5) indeed the test compound were included. For MAO-B activity assay, MAO reaction buffer contain 10% DMSO, in order to increase enzymatic activity. Step 2. […] At the end of incubation 50 μl of Luciferin Detection reagent were added to each well, plate was incubated at room temperature for 20 min, then luminescent signal was detected by luminometer (integration time 0.25-1 sec per well). […] Net MAO-dependent luminescence (net RLU) were calculated by subtracting the average luminescence of the negative control reaction without MAO enzyme. A reduction of net signal in the presence of test compound, with respect to total activity, reflect its effect on MAOs activity. […] A percentage of inhibition for each concentration tested were calculated and the IC50 value was estimated by linear regression.

[3] = system: CD1 Mice; experiment: Tail suspension test in mice; assay type: in vivo; settings: for ED50: oral
Protocol: Tail Suspension Test in Mice
To evaluate novel antidepressants compounds several animal models have been developed. […] The antidepressant effect of representative examples of compounds of formula (I) has been evaluated according to the procedure below. The immobility was induced according to the procedure of Stem et al. (1985). CD1 Mice (Harlan, Italy) were individually suspended 75 cm above the top with an adhesive tape placed 1 cm from the tip of the tail. Immobility duration was recorded for 5 min. Mice were considered immobile only when they hung passively and completely motionless. Compounds were given orally, 30 min before the test at doses ranging between 0.3 and 30 mg/kg. Data collected were expressed as mean percent effect (MPE), which represents the % of inhibition in immobility time between the animals treated with representative compounds of formula (I) and the controls that received only the vehicle.

[4] = target: human recombinant MAO-A (Homo sapiens (Human), UniProt P21397); experiment: Monoaminooxidase (MAO) activity assay, MAO-Glo luminescent method, MAO-A
Chain of human recombinant MAO-A (P21397 whole entry): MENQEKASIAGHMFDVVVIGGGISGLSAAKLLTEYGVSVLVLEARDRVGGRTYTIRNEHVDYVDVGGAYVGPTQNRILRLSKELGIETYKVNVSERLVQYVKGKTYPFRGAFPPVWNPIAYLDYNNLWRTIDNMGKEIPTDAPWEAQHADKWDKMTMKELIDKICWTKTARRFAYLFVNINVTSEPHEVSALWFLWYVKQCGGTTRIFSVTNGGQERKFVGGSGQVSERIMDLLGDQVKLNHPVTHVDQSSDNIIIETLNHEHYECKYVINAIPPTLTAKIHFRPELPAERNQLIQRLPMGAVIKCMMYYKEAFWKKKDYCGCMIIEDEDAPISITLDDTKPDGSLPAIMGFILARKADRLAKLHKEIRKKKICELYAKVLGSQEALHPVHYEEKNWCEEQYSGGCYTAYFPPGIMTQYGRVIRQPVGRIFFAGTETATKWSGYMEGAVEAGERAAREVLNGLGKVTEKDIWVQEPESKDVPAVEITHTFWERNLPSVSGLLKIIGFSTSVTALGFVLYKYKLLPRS

[5] = target: I2 Imidazoline Receptor; experiment: Binding study towards I2 imidazoline receptor subtype in rat brain ([3H]2-BFI displacement); settings: read-out: [3H]2-BFI binding IC50; rat whole brain membranes, [3H]-2BFI 2.5x10-9 M, 90 min at 25° C.
Protocol: Binding Study Towards I2 Imidazoline Receptor Subtype in Rat Brain.
Male Wistar rats (240-300 g, Harlan, Italy) were sacrificed by decapitation. Whole brains were immediately removed on ice and homogenised in 10 volumes of buffered sucrose (0.32M in 50 mM Tris-HCl, pH 7.4 at 4° C.) using a motor driven Teflon-glass homogeniser. The homogenate was centrifuged at 1000×g for 10 min at 4° C. The resultant supernatants were pooled and centrifuged at 32000×g for 20 min at 4° C. The supernatants were discarded and each pellet suspended in 10 volumes of assay buffer (50 mM Tris-HCl, 1 mM MgCl2, pH 7.4 at 4° C.) and spun at 32000×g for 20 min at 4° C. The pellets were washed twice by repeated centrifugation at 32000×g for 20 min at 4° C. The final pellets were stored at −80° C. until use. Prior to radioligand binding studies, membrane pellets were thawed and washed a further 4 times by re-suspension in 10 volumes of assay buffer (as above) and repeated centrifugation to remove any possible endogenous inhibitors of binding. […] Non specific binding was determined in the presence of 10^-5 M BU224 (Tocris Bioscience). The incubation, in a final volume of 1 ml, was performed in polystyrene multiwell 24, started adding membranes suspension and was carried out for 90 min at 25° C. With the exception of total binding and non specific binding, all concentration points were performed in duplicate. Compounds were tested in 3-5 different concentrations, ranging from 10^-10 M to 10^-5 M final concentration.

[6] = system: CD1 Mice; settings: commercially available antidepressant drugs, subcutaneous; Millan MJ et al., 2001 JPET, 298(2): 581-591; cited from earlier work
[7] = Table 3, dose 3 mg/Kg OS, 30 min before the test
[8] = Table 3, dose 10 mg/Kg OS, 30 min before the test
[9] = Table 3, dose 30 mg/Kg OS, 30 min before the test
[10] = Table 3, dose yielding 50% reduction of immobility
[11] = read-out: MAO A activity IC50, human recombinant MAO-A, substrate 40 μM, 60 min room temperature

Chain of human recombinant MAO-B (P27338 whole entry): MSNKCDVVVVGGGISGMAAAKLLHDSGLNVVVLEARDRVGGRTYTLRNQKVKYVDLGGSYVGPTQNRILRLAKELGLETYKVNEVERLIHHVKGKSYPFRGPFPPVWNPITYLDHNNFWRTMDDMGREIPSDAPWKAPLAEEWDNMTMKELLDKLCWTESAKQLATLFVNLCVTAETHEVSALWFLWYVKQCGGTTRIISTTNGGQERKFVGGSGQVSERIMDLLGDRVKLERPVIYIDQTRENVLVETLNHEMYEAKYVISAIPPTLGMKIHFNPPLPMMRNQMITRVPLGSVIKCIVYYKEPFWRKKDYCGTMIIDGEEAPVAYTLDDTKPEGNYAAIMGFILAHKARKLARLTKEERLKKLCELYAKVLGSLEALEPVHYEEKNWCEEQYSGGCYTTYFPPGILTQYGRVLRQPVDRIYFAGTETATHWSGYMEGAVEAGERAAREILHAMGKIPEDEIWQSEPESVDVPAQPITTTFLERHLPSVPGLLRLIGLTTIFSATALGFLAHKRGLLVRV

CN1CC[C@]23c4c5ccc(O)c4O[C@H]2[C@@H](O)C=C[C@H]3[C@H]1C5 [Morphine, reference compound]
MPE 2 h (difference in pain threshold) ([1]; 2 h, Example 1 1.5 mg/Kg OS and/or Morphine 0.5 mg/Kg SC): 42.88% | MPE 3 h (difference in pain threshold) ([1]; 3 h, Example 1 1.5 mg/Kg OS and/or Morphine 0.5 mg/Kg SC): 30.49% | MPE 4 h (difference in pain threshold) ([1]; 4 h, Example 1 1.5 mg/Kg OS and/or Morphine 0.5 mg/Kg SC): 15.04%

c1cn(-c2ccc3nc(-c4ccc5c(c4)OCO5)ccc3c2)cn1 [Example 16, [6-(1H-imidazol-1-yl)-2-(1,3-benzodioxol-5-yl)]quinoline dihydrochloride]
IC50 [2]: > 10000 nM | MPE (% inhibition in immobility time) [3, 7]: 41% | MPE (% inhibition in immobility time) [3, 8]: 66% | MPE (% inhibition in immobility time) [3, 9]: 100% | ED50 [3, 10]: 4.6 mg/Kg; OS | IC50 [4]: > 10000 nM | IC50 [5]: 190 nM

COc1ccc(C(CN(C)C)C2(O)CCCCC2)cc1 (stereo not drawn) [Venlafaxine]
ED50 [6]: 11.7 mg/Kg; SC

Cc1cn(-c2ccc3nc(-c4ccc5c(c4)OCO5)ncc3c2)cn1 [Example 9, [6-(4-methyl-1H-imidazol-1-yl)-2-(1,3-benzodioxol-5-yl)]quinazoline]
IC50 [2]: > 10000 nM | IC50 [4]: > 10000 nM | IC50 [5]: 1040 nM

Cc1cncn1-c1ccc2nc(-c3ccccc3)ncc2c1 [Example 5, [6-(5-methyl-1H-imidazol-1-yl)-2-phenyl]quinazoline]
IC50 [2]: > 10000 nM | MPE (% inhibition in immobility time) [3, 7]: 41% | MPE (% inhibition in immobility time) [3, 8]: 61% | MPE (% inhibition in immobility time) [3, 9]: 91% | ED50 [3, 10]: 4.9 mg/Kg; OS | IC50 [4]: > 10000 nM | IC50 [5]: 1180 nM

c1cn(-c2ccc3nc(-c4ccc5c(c4)OCCO5)ncc3c2)cn1 [Example 15, [6-(1H-imidazol-1-yl)-2-(2,3-dihydro-1,4-benzodioxin-6-yl)]quinazoline]
IC50 [2]: > 10000 nM | IC50 [4]: > 10000 nM | IC50 [5]: 500 nM

c1cn(-c2ccc3nc(-c4ccc5occc5c4)ncc3c2)cn1 [Example 14, [6-(1H-imidazol-1-yl)-2-(benzofuran-5-yl)-]quinazoline dihydrochloride trihydrate]
IC50 [2]: > 10000 nM | IC50 [4, 11]: 350 nM | IC50 [5]: 610 nM

Fc1ccc(-c2ccc3cc(-n4ccnc4)ccc3n2)cc1 [Example 21, [6-(1H-imidazol-1-yl)-2-(4-fluorophenyl)]quinoline dihydrochloride]
IC50 [2]: > 10000 nM | MPE (% inhibition in immobility time) [3, 7]: 36% | MPE (% inhibition in immobility time) [3, 8]: 72% | MPE (% inhibition in immobility time) [3, 9]: 89% | ED50 [3, 10]: 4.9 mg/Kg; OS | IC50 [4]: > 10000 nM | IC50 [5]: 240 nM

Cc1cn(-c2ccc3nc(-c4ccccc4)ncc3c2)cn1 [Example 4, [6-(4-methyl-1H-imidazol-1-yl)-2-phenyl]quinazoline]
IC50 [2]: > 10000 nM | IC50 [4, 11]: 2060 nM | IC50 [5]: 480 nM | melting point: 201.9 to 202.8 °C

Cc1nccn1-c1ccc2nc(-c3ccccc3)ncc2c1 [Example 2, [6-(2-methyl-1H-imidazol-1-yl)-2-phenyl]quinazoline]
IC50 [2]: > 10000 nM | MPE (% inhibition in immobility time) [3, 7]: 17% | MPE (% inhibition in immobility time) [3, 8]: 77% | MPE (% inhibition in immobility time) [3, 9]: 83% | ED50 [3, 10]: 7.1 mg/Kg; OS | IC50 [4]: > 10000 nM | IC50 [5]: 2400 nM | melting point: 198.3 to 200.3 °C

COc1ccc(-c2ncc3cc(-n4cnc(C)c4)ccc3n2)cc1 [Example 6, [6-(4-methyl-1H-imidazol-1-yl)-2-(4-methoxyphenyl)]quinazoline]
IC50 [2]: > 10000 nM | IC50 [4]: > 10000 nM | IC50 [5]: 1160 nM

CCOc1ccccc1OC(c1ccccc1)C1CNCCO1 (stereo not drawn) [Reboxetine]
ED50 [6]: 4.2 mg/Kg; SC

c1cn(-c2ccc3nc(-c4ccoc4)ccc3c2)cn1 [Example 20, [6-(1H-imidazol-1-yl)-2-(3-furyl)]quinoline dihydrochloride]
IC50 [2]: > 10000 nM | IC50 [4, 11]: 250 nM | IC50 [5]: 1190 nM

c1ccc2c(c1)OCC(C1=NCCN1)O2 (stereo not drawn) [Idazoxan, reference compound]
IC50 [2]: > 1000 nM | IC50 [4]: > 1000 nM | IC50 [5]: 11 nM

c1ccc(-c2ncc3cc(-n4ccnc4)ccc3n2)cc1 [Example 1, [6-(1H-imidazol-1-yl)-2-phenyl]quinazoline]
IC50 [2]: > 10000 nM | antidepressant-like effect in the presence of Idazoxan ([3]; 0.3 mg/Kg Idazoxan, antagonist of imidazoline (I2) receptors): blocked | MPE (% inhibition in immobility time) ([3]; Table 3, dose 0.3 mg/Kg OS, 30 min before the test): 35% | MPE (% inhibition in immobility time) ([3]; Table 3, dose 1 mg/Kg OS, 30 min before the test): 38% | MPE (% inhibition in immobility time) [3, 7]: 40% | MPE (% inhibition in immobility time) [3, 8]: 66% | MPE (% inhibition in immobility time) [3, 9]: 84% | ED50 [3, 10]: 4.8 mg/Kg; OS | MPE (% inhibition in immobility time) ([3]; Table 4, Example 1 dose 3 mg/Kg OS, alone or with Idazoxan 0.3 mg/Kg IP): 43% | MPE (% inhibition in immobility time) ([3]; Table 4, Example 1 dose 10 mg/Kg OS, alone or with Idazoxan 0.3 mg/Kg IP): 54% | MPE (% inhibition in immobility time) ([3]; Table 4, Example 1 dose 30 mg/Kg OS, alone or with Idazoxan 0.3 mg/Kg IP): 97% | ED50 ([3]; Table 4): 5.1 mg/Kg; OS | IC50 [4, 11]: 220 nM | IC50 [5]: 680 nM | MPE 2 h (difference in pain threshold) ([1]; rat, in vivo): 17.19% | MPE 3 h (difference in pain threshold) ([1]; rat, in vivo): 6.61% | MPE 4 h (difference in pain threshold) ([1]; rat, in vivo): 2.46%

Cc1cc(OC(F)(F)F)ccc1-c1ccc2cc(-n3ccnc3)ccc2n1 [Example 24, [6-(1H-imidazol-1-yl)-2-(2-methyl-4-trifluoromethoxyphenyl)]quinoline dihydrochloride]
IC50 [2]: > 10000 nM | IC50 [4, 11]: 280 nM | IC50 [5]: 1140 nM

COc1ccccc1-c1ncc2cc(-n3cnc(C)c3)ccc2n1 [Example 7, [6-(4-methyl-1H-imidazol-1-yl)-2-(2-methoxyphenyl)]quinazoline]
IC50 [2]: > 10000 nM | IC50 [4]: > 10000 nM | IC50 [5]: 2180 nM | melting point: 160.6 to 162 °C

CN(C)CCCC1(c2ccc(F)cc2)OCc2cc(C#N)ccc21 (stereo not drawn) [Citalopram]
ED50 [6]: 8.8 mg/Kg; SC

Source: patent publication US8633208B2, “6-1H-imidazo-quinazoline and quinolines derivatives, new MAO inhibitors and imidazoline receptor ligands” (Rottapharm S.p.A, priority 2008, dated 2014)
